Patent US9873702B2, “Heterocyclic compounds as biogenic amine transport modulators” (Southern Research Institute, priority 2014, dated 2018)
Entries after “also recorded” stand apart in the source; their conditions may differ. Where two headings read alike, the source gives them in different places.

How the values were obtained:
[1] = target: dopamine transporter (DAT) (Rattus norvegicus, UniProt P23977); experiment: Dopamine reuptake ([^3H]dopamine uptake) inhibition in rat brain synaptosomes
Procedure: Freshly removed caudate was homogenized in 10% ice-cold sucrose with 12 strokes of a hand-held Potter-Elvehj em homogenizer followed by centrifugation at 1000×g for 10 min. The supernatants were saved on ice and used immediately. Transporter activity was assessed using 5 nM [^3H]dopamine. […] The selectivity of the uptake assay for dopamine active transporter (DAT) was optimized by including 100 nM citalopram and 100 nM desipramine as blockers of serotonin transporter (SERT) and norepinephrine transporter (NET) in the sucrose solution and assay buffer. Uptake inhibition assays were conducted at 25° C. and were initiated by adding 100 μl of tissue to 900 μL assay buffer containing test drug and [^3H]dopamine. Test drugs were diluted in assay buffer containing 1 mg/mL bovine serum albumin. Nonspecific uptake was measured by incubating in the presence of 10 μM indatraline. The reactions were stopped after 15 minutes by rapid vacuum filtration with a cell harvester (BRANDEL) over GF/B filters (Whatman) presoaked in wash buffer maintained at 25° C. (10 mM Tris-HCl, pH 7.4/150 mM NaCl). Filters were rinsed with 6 mL wash buffer and retained tritium was quantified by a MicroBeta liquid scintillation counter (PerkinElmer) after overnight extraction in 0.6 mL of liquid scintillation cocktail (Cytoscint, ICN). The data from three experiments were pooled and fit to a dose-response curve equation (using Kaleidagraph), to yield an Emax and EC50 value.
The data from three experiments were pooled and fit to a dose-response curve equation (using KaleidaGraph; Synergy Software, Reading, Pa.) to yield an Emax and IC50 value.

[2] = DA Uptake EC50 (nM ± SD), rat caudate synaptosomes, 5 nM [^3H]dopamine, 15 min, 25° C., three experiments pooled
[3] = read-out: DA Uptake Emax (% I ± SD)

dopamine transporter (DAT), sequence (P23977 whole entry): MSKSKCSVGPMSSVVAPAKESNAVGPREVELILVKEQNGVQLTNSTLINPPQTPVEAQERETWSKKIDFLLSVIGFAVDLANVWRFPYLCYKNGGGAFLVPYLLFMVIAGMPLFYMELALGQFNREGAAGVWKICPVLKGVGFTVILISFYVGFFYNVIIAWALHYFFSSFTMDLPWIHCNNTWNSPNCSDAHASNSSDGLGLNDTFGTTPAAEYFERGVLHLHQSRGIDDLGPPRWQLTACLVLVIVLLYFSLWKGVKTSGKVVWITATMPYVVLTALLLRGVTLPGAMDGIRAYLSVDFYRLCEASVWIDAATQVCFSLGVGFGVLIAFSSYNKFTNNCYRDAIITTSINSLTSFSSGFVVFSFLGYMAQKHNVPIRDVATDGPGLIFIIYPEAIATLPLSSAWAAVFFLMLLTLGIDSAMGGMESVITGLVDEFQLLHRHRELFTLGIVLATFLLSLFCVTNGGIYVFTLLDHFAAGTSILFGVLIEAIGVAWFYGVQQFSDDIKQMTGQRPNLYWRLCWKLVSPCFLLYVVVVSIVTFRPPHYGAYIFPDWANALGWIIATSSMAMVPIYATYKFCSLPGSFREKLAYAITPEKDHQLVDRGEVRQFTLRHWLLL

Structure (SMILES)	melting point [°C]	IC50 [1, 2] [nM]	Emax [1, 3] [%]	other results
Cc1cc2nccn2cc1-c1nc(NCC(CN(C)C)c2ccccc2)c2ccccc2n1 (stereo not drawn) [compound 192, N1,N1-Dimethyl-N3-(2-(7-Methylimidazo[1,2-A]Pyridin-6-yl)Quinazolin-4-yl)-2-Phenylpropane-1,3-Diamine]	250 to 252	10 ± 3	77 ± 4	
O=S(=O)(c1ccccc1)n1ccc2cc(-c3nc(NCC(c4ccccc4)c4ccccc4)c4ccccc4n3)ccc21 [compound 36, N-(2,2-Diphenylethyl)-2-(1-(Phenylsulfonyl)-1H-Indol-5-yl)Quinazolin-4-Amine]	203			
c1ccc(C(CCNc2nc(-c3cccs3)nc3ccccc23)c2ccccc2)cc1 [compound 7, N-(3,3-Diphenylpropyl)-2-(thiophen-2-yl)quinazolin-4-amine]	152 to 155	910	100	
Cc1cc2nccn2cc1-c1nc(NCC(Cc2ccccc2)Cc2ccccc2)c2ccccc2n1 [compound 182, N-(2-Benzyl-3-Phenylpropyl)-2-(7-Methylimidazo[1,2-A]Pyridin-6-yl)Quinazolin-4-Amine]	181 to 184	8.3 ± 0.9	75 ± 1	
Nc1ncc(-c2nc(NCC(c3ccccc3)c3ncccn3)c3ccccc3n2)cn1 (stereo not drawn) [compound 104, 2-(2-Aminopyrimidin-5-yl)-N-(2Phenyl-2-(Pyrimidin-2-yl)Ethyl)Quinazolin-4-Amine]	211			
c1ccc(C(Nc2nc(-c3cc4ccccc4s3)nc3ccccc23)c2ccccc2)cc1 [compound 8, N-Benzhydryl-2-(benzo[b]thiophen-2-yl)quinazolin-4-amine]	180 to 182			
Clc1cccc(C(CNc2nc(-c3cccnc3)nc3ccccc23)c2ccccc2)n1 (stereo not drawn) [compound 53, N-(2-(6-Chloropyridin-2-yl)-2-Phenylethyl)-2-(Pyridin-3-yl)Quinazolin-4-Amine]	83			
CC(C)(C)OC(=O)n1cc(-c2nc(NCC(c3ccccc3)c3ccccc3)c3ccccc3n2)c2ccccc21 [compound 72, Tert-Butyl 3-(4-((2,2-Diphenylethyl)Amino)Quinazolin-2-yl)-1H-Indole-1-Carboxylate]	90			
O=C(N[C@H](CNc1nc(-c2ccc3nccn3c2)nc2ccccc12)c1ccccc1)c1ccccc1 [compound 150, (S)—N-(2-((2-(Imidazo[1,2-A]Pyridin-6-yl)Quinazolin-4-yl)Amino)-1-Phenylethyl)Benzamide]	97 to 99			
CN(C)c1ccc(-c2nc(NCCc3ccccc3)c3ccccc3n2)cc1 [SRI-31335]				IC50 ([1]; One-Site IC50 (nM), [^3H]DA uptake dose-response curve fit to one-component equation): 156 ± 12 nM; IC50 ([1]; Two-Site IC50-1 (nM), [^3H]DA uptake dose-response curve fit to two-component equation, component 1): 99 ± 63 nM; IC50 ([1]; Two-Site IC50-2 (nM), [^3H]DA uptake dose-response curve fit to two-component equation, component 2): 564 ± 1180 nM; efficacy of [^3H]DA (DAT) uptake inhibition, in words ([1]; partial versus full inhibition): fully inhibits; also recorded: full-efficacy [^3H]DA uptake inhibitors; Emax ([1]; read-out: One-Site Emax (% I)): 100 ± 1.5%; Emax ([1]; read-out: Two-Site Emax-1 (% I)): 76 ± 54%; Emax ([1]; read-out: Two-Site Emax-2 (% I)): 27 ± 53%
CN(C)Cc1cnc2ccc(-c3nc(NCC(c4ccccc4)c4ccccc4)c4ccccc4n3)cn12 [compound 112, 2-(3-((Dimethylamino)methyl)Imidazo[1,2-A]pyridin-6-yl)-N-(2,2-Diphenylethyl)Quinazolin-4-Amine]	240			
c1ccc(C(CNc2nc(-c3ccc4nccn4c3)nc3ccccc23)c2ccc[nH]2)nc1 (stereo not drawn) [compound 159, 2-(Imidazo[1,2-A]pyridin-6-yl)-N-(2-(Pyridin-2-yl)-2-(1H-Pyrrol-2-yl)Ethyl)Quinazolin-4-Amine]	235 to 237			

Now from value to compound, other results behind:

melting point [°C]	IC50 [1, 2] [nM]	Emax [1, 3] [%]	Structure (SMILES)	other results
94	560	100	COc1cc2nc(-c3cccs3)nc(NCC(c3ccccc3)c3ccccc3)c2cc1OC [compound 26, N-(2,2-Diphenylethyl)-6,7-Dimethoxy-2-(Thiophen-2-yl)Quinazolin-4-Amine]	
154	750	100	c1ccc(C(CCNc2nc(-c3cncnc3)nc3ccccc23)c2ccccc2)cc1 [compound 22, N-(3,3-Diphenylpropyl)-2-(Pyrimidin-5-yl)Quinazolin-4-Amine]	
78	72 ± 12	80 ± 2	Cc1nc(C)c(-c2nc(NCC(c3ccccc3)c3ccccc3)c3ccccc3n2)s1 [compound 54, 2-(2,4-Dimethylthiazol-5-yl)-N-(2,2-Diphenylethyl)Quinazolin-4-Amine]	
224	175 ± 68	58 ± 4	FC(F)(F)CNc1ncc(-c2nc(NCC(c3ccccc3)c3ccccc3)c3ccccc3n2)cn1 [compound 45, N-(2,2-Diphenylethyl)-2-(2-((2,2,2-Trifluoroethyl)Amino)Pyrimidin-5-yl)Quinazolin-4-Amine]	
102	89 ± 23	81 ± 4	c1ccc(C(CNc2nc(-c3ccc4cc[nH]c4c3)nc3ccccc23)c2ccccc2)cc1 [compound 31, N-(2,2-Diphenylethyl)-2-(1H-indol-6-yl)Quinazolin-4-Amine]	
105	79 ± 19	75 ± 3	Nc1ncc(-c2nc(NCC(c3ccccc3)C3CCCCC3)c3ccccc3n2)cn1 (stereo not drawn) [compound 101, 2-(2-Aminopyrimidin-5-yl)-N-(2-Cyclohexyl-2-Phenylethyl)Quinazolin-4-Amine]	
208	121 ± 27	66 ± 3	c1ccc(C(CNc2nc(-c3cnc(N4CCCC4)nc3)nc3ccccc23)c2ccccc2)cc1 [compound 37, N-(2,2-Diphenylethyl)-2-(2-(Pyrrolidin-1-yl)Pyrimidin-5-yl)Quinazolin-4-Amine]	
> 250			c1ccc(C(CNc2nc(-c3ccc4nccn4c3)nc3ccccc23)N2CCOCC2)cc1 (stereo not drawn) [compound 122, 2-(Imidazo[1,2-A]Pyridin-6-yl)-N-(2-Morpholino-2-Phenylethyl)Quinazolin-4-Amine]	
127			CC(C)(C)OC(=O)N1CCc2cc(-c3nc(NCC(c4ccccc4)c4ccccc4)c4ccccc4n3)ccc21 [compound 74, Tert-Butyl 5-(4-((2,2-Diphenylethyl)Amino)Quinazolin-2-yl)Indoline-1-Carboxylate]	
67			c1ccc(C(CNc2nc(-c3cccc4cc[nH]c34)nc3ccccc23)c2ccccc2)cc1 [compound 33, N-(2,2-Diphenylethyl)-2-(1H-Indol-7-yl)Quinazolin-4-Amine]	
225 to 227			CN1CCN(C(CNc2nc(-c3ccc4nccn4c3)nc3ccccc23)c2ccccc2)CC1 (stereo not drawn) [compound 126, 2-(Imidazo[1,2-A]Pyridin-6-yl)-N-(2-(4-Methylpiperazin-1-yl)-2-Phenylethyl)Quinazolin-4-Amine]	
201 to 203			c1ccc(C(CCNc2nc(-c3cc4ccccc4s3)nc3ccccc23)c2ccccc2)cc1 [compound 19, N-(3,3-Diphenylpropyl)-2-(Benzo [B]Thiophen-2-yl)Quinazolin-4-Amine]	
	132 ± 43	69 ± 4	c1ccc(C(CNc2nc(-c3ccc4c(c3)NCCC4)nc3ccccc23)c2ccccc2)cc1 [compound 83, N-(2,2-Diphenylethyl)-2-(1,2,3,4-Tetrahydroquinolin-7-yl)Quinazolin-4-Amine]	
	480	100	c1ccc(C(CNc2nc(-c3cccnc3)nc3ccccc23)c2ccccc2)cc1 [compound 2, N-(2,2-Diphenylethyl)-2-(pyridin-3-yl)quinazolin-4-amine]	
